Test results as given in publication PMC10548452 (Journal of medicinal chemistry, 2021).
Read-outs that look alike come from different tables or passages of the source.

Tests used:
[1] = system: HIV-1BaL Env-pseudotyped Luc-expressing virus; format: cell-based; conditions: PHA-stimulated PBMCs; opioid 10 nM
HIV = conditions: primary human astrocytes, cited from earlier work
HIV-1BaL [2] = assay: Anti-HIV-1BaL activity; conditions: GHOST CCR5 cells
GHOST CCR5 cells = assay: Cytotoxicity; conditions: GHOST CCR5 cells; XTT; triplicate
CCR5 (HOS-CCR5 cells) = CCR5 (HOS-CCR5 cells) (Homo sapiens, UniProt P51681); assay: Calcium mobilization assay in HOS-CCR5 cells; format: cell-based; conditions: for CCR5 activation (agonism) in Ca2+ mobilization assay: within the range of concentrations tested
CCR5 (HOS-CCR5 cells), sequence (P51681 whole entry): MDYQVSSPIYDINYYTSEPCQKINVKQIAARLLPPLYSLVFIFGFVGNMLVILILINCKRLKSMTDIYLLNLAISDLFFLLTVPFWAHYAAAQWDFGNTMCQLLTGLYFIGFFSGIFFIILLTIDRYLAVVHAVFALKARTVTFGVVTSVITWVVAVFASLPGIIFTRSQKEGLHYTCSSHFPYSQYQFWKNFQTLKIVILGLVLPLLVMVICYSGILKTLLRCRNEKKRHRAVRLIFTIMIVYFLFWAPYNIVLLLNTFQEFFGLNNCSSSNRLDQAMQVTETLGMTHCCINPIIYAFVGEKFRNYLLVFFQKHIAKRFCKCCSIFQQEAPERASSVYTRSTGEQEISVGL

[3] = target: mouse mu opioid receptor (mMOR-CHO) (Mus musculus, UniProt P42866); assay: Calcium mobilization assay in mMOR-CHO cells; format: cell-based; conditions: agonist mode, varying concentrations
mouse mu opioid receptor (mMOR-CHO), sequence (P42866 whole entry): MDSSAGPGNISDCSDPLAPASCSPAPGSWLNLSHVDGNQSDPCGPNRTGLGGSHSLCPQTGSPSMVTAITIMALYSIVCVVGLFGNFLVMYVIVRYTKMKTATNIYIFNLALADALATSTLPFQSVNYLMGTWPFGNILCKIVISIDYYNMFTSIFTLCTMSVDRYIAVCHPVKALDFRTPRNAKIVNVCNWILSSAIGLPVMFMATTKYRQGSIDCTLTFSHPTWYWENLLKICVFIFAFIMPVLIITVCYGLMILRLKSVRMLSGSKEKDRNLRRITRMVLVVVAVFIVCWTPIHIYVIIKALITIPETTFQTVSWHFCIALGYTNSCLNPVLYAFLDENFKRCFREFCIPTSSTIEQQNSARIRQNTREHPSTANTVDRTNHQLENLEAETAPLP

Cytotoxicity = conditions: human
[4] = system: HIV-1BaL Env-pseudotyped Luc-expressing virus (HIV-1-Luc); assay: HIV-1-Luc infection assay in nonstimulated PBMCs; format: cell-based; conditions: 1000 nM
[5] = target: mouse MOR expressed in CHO cell lines (mMOR-CHO) (Mus musculus, UniProt P42866); assay: MOR competitive radioligand binding assay; conditions: ratio of Ki values vs VZMC001
mouse MOR expressed in CHO cell lines (mMOR-CHO), sequence (P42866 whole entry): as above

HIV-1BaL [6] = assay: HIV-1BaL infection assay in OPRM1- or control plasmid-transfected TZM-bl cells; format: cell-based; conditions: Human immunodeficiency virus 1, TZM-bl, read-out: Inhibition of HIV-1BaL infection EC50, TZM-bl cells containing only control plasmid
[7] = target: rhesus macaque CCR5 expressed in Chem-1 cells (Macaca mulatta, UniProt P61813); assay: CCR5 competitive radioligand binding assay
CCR5 (Macaca mulatta) = CCR5 (Macaca mulatta) (UniProt P61813); assay: radioligand binding; conditions: cited from earlier work

MIP-1α, sequence (P10147 27-92): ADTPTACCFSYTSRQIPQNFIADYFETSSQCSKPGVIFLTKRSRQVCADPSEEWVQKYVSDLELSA

## C[C@@H](NC(=O)[C@@H](N)Cc1ccc(O)cc1)C(=O)NCC(=O)N(C)[C@@H](Cc1ccccc1)C(=O)NCCO [DAMGO, [D-Ala^2-MePhe^4-Gly(ol)^5]enkephalin]
[1]
  effect on HIV expression: remarkable increases in HIV expression

## Cc1nnc(C(C)C)n1C1C[C@H]2CC[C@@H](C1)N2CC[C@H](NC(=O)C1CCC(F)(F)CC1)c1ccc(NC(=O)COCC(=O)NCCCCCCCNC(=O)COCC(=O)N[C@@H]2CC[C@@]3(O)[C@H]4Cc5ccc(O)c6c5[C@@]3(CCN4CC3CC3)[C@H]2O6)cc1 (some centres unmarked) [VZMC001, reference compound]
HIV; with morphine
  fold higher inhibition of HIV entry than maraviroc: 7 fold
HIV; without morphine
  fold higher inhibition of HIV entry than maraviroc: 3.3 fold
HIV-1BaL [2]; concentrations up to 100 μM, 0 μM defined as 100%
  RT activity: 107.6–226.1%
GHOST CCR5 cells
  Cytotoxicity TC50: >100 µM

## CC(C)c1nnc(CCNC(=O)COCC(=O)NCCCCCCCNC(=O)COCC(=O)N[C@@H]2CC[C@@]3(O)[C@H]4Cc5ccc(O)c6c5[C@@]3(CCN4CC3CC3)[C@H]2O6)n1C1C[C@H]2CC[C@@H](C1)N2CC[C@H](NC(=O)C1CCC(F)(F)CC1)c1ccccc1 (some centres unmarked) [VZMC013]
CCR5 (HOS-CCR5 cells); agonist mode
  CCR5 activation (agonism) in Ca2+ mobilization assay: none of these compounds appeared to activate CCR5
CCR5 (HOS-CCR5 cells); ratio of IC50 values vs VZMC001
  fold more potent than VZMC001 in inhibiting CCL5-stimulated Ca2+ mobilization: 2.2 fold
[3]
  agonism in Ca2+ mobilization assay: No agonism was observed
HIV-1BaL [2]
  TI (therapeutic index, TC50/EC50): >1075
Cytotoxicity
  viability at 6 days, 100 µM: ~100%
GHOST CCR5 cells
  Cytotoxicity TC50: >100 µM
[4]
  Inhibition of HIV-1-Luc infectivity: nearly complete blockade
[5]
  fold higher MOR binding affinity than VZMC001: 8.6 fold
HIV-1BaL [6]
  EC50: 610 nM
[7]; ratio of Ki values vs VZMC014
  fold greater CCR5 binding affinity than monovalent VZMC014: 12 fold

## CNC(=O)COCC(=O)NCCCCCCCNC(=O)COCC(=O)NCCc1nnc(C(C)C)n1[C@@H]1C[C@H]2CC[C@@H](C1)N2CC[C@H](NC(=O)C1CCC(F)(F)CC1)c1ccccc1 [VZMC014]
CCR5 (HOS-CCR5 cells)
  IC50: 116 nM
CCR5 (HOS-CCR5 cells); agonist mode
  CCR5 activation (agonism) in Ca2+ mobilization assay: none of these compounds appeared to activate CCR5

## CC(C)c1nnc(CCNC(=O)COCC(=O)NCCCCCNC(=O)COCC(=O)N[C@@H]2CC[C@@]3(O)[C@H]4Cc5ccc(O)c6c5[C@@]3(CCN4CC3CC3)[C@H]2O6)n1C1C[C@H]2CC[C@@H](C1)N2CC[C@H](NC(=O)C1CCC(F)(F)CC1)c1ccccc1 (some centres unmarked) [VZMC019]
[7]
  IC50: > 10 µM

## CCL5: C─C motif chemokine ligand 5, CCR5 agonist control [reference compound]
CCR5 (HOS-CCR5 cells); read-out: Ca2+ mobilization agonism EC50, agonist mode, HOS-CCR5 cells with Gqi5
  EC50: 155 ± 6.58 nM

## MIP-1α (from UniProt P10147)
CCR5 (Macaca mulatta)
  Kd: 0.31 nM
